Measurements: patent publication US6617127B2, “Synthesis and recovery of aspartame involving enzymatic deformylation step” (Holland Sweetener Company, V.O.F., priority 1998, dated 2003)
Residues, ends and D or L forms follow the SMILES beside them. *: point of attachment. For = O=C*

Legend:
[1] = molecular target: T1, EC 3.5.1.27 PDF (Fe^2+) enzyme (Escherichia coli, UniProt P0A6K3); test: Deformylation reactions with PDF (Fe^2+), free amino compound determined by TNBS; format: biochemical, E. coli; conditions: for yield (%) of deformylated product: 100 mM substrate, 0.2 mM PDF (Fe^2+), MES/KOH pH 6.2, 250 mM KCl, 37° C., after 10 hours; for inhibition of the PDF in the deformylation of F-α-AP and F-α-APM: presence of the β-form
T1 construct: made in house; host or cells: E. coli (overproducing cells)
T1 sequence (P0A6K3 1-169): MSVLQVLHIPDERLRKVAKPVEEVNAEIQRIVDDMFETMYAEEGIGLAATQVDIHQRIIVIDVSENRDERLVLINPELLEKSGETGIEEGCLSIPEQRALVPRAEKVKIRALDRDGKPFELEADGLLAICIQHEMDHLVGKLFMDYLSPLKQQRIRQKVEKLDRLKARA
Method: An EC 3.5.1.27 PDF (Fe^2+) enzyme was isolated from overproducing E. coli cells grown at 30° C. in 1.6 l TB medium for 14-16 hours. […] After washing with 120 ml of 20 mM Hepes/KOH, 100 mM KF, 0.2 mM TCEP, pH 7.7, the PDF (Fe^2+) was eluted with 150 ml 20 mM Hepes/KOH, 100 mM KCl, 0.2 mM TCEP, pH 7.7. […] After adjustment of the TCEP concentration to 1 mM and protein concentration to 40 mg/ml PDF (Fe^2+) was stored frozen at −60° C.
Compounds (100 mM) as indicated in Table 2 for each separate Example were incubated in the presence of 100 mM aqueous 2-(N-morpholino)-ethanesulphonic acid (MES)/KOH buffer pH=6.2 and 250 mM KCl at 37° C. […] Following a brief centrifugation, the amount of deformylated compounds in the supernatant was determined by trinitrobenzene sulphonic acid (TNBS) according to the method of Fields (Methods in Enzymology, 25, 464-468 (1972)), using ε420=21.2 mM^−1 cm^−1. The amount of (deformylated) compound each time was corrected for the intrinsic amount of free amino compound which was detected without incubation with the PDF.
The product yields indicated are the yields after 10 hours of reaction time.
In addition, the catalytic properties of the PDF in the deformylation reactions of F-α-AP and F-α-APM (in particular the initial reaction rates for deformylation in resp. 1 hour for F-α-APM and 3 hours for F-α-AP) were determined by performing the reactions of Examples 1 and 2 at various substrate concentrations from 2-140 mM. In particular, the following catalytic properties of the enzyme were determined: […]

[2] = test system: immobilized penicillin-acylase; test: Comparative Example D: deformylation of F-α-APM with penicillin-acylase, TLC; format: biochemical; conditions: 1 g F-α-APM in 25 ml, 0.2 g enzyme preparation, pH 6,5, 37° C., 48 hours
Method: 1 g of F-α-APM was dissolved in 25 ml of distilled water and the pH was adjusted to 6,5 by the addition of 0.1 M aqueous NaOH. Then, 0.2 g of an immobilized penicillin-acylase preparation was added. The reaction mixture was allowed to stand for 48 hours at 37° C. At regular time intervals during the reaction, samples were taken and analyzed by thin layer chromatography using α-APM as a reference substance.

penicillin-acylase = conditions: after 36 hours, 50 U of enzyme and 2 g of F-α-APM; cited from earlier work
[3] = Activity assay of isolated PDF (Fe^2+); format: biochemical; conditions: 5 mM formylmethionyl-alanine, 30° C., pH=7.2
Method: An EC 3.5.1.27 PDF (Fe^2+) enzyme was isolated from overproducing E. coli cells grown at 30° C. in 1.6 l TB medium for 14-16 hours. About 13 g (wet weight) of cell paste were suspended in 26 ml buffer (20 mM Hepes/KOH, 100 mM KF, pH 7.7 supplemented with 10 μg/ml catalase from bovine liver (Boehringer Mannheim) and 1 mM AEBSF, disintegrated by sonification (Branson B12, 20 min) at 0° C. and centrifuged at 200.000 g for 1 hour. The clear supernatant (1.3 g of protein; according to biurete reaction) was mixed with 1.3 ml 10% (w/v) Polymin G-35 (BASF) adjusted to pH 7.7 and centrifuged at 40.000 g for 10 minutes. The supernatant was applied to a 20 ml Met-Lys-Sepharose column that had been equilibrated with 20 mM Hepes/KOH, 100 mM KF, 0.2 mM TCEP, pH 7.7. After washing with 120 ml of 20 mM Hepes/KOH, 100 mM KF, 0.2 mM TCEP, pH 7.7, the PDF (Fe^2+) was eluted with 150 ml 20 mM Hepes/KOH, 100 mM KCl, 0.2 mM TCEP, pH 7.7. The protein containing fractions were concentrated by ultrafiltration using an Amicon PM10 membrane (yield: 140 mg protein, having an activity of 800 IU/mg; assay conditions: 5 mM formylmethionyl-alanine, 30° C., pH=7.2). After adjustment of the TCEP concentration to 1 mM and protein concentration to 40 mg/ml PDF (Fe^2+) was stored frozen at −60° C.

[4] = substrate: COC(=O)[C@H](Cc1ccccc1)NC(=O)C[C@H](NC=O)C(=O)O; test: Deformylation reactions with PDF (Fe^2+), free amino compound determined by TNBS; format: biochemical, E. coli; conditions: other: PDF (Fe^2+), pH 6.2, 37° C.
[5] = substrate: COC(=O)[C@H](Cc1ccccc1)NC(=O)[C@H](CC(=O)O)NC=O; test: as above; format: biochemical, E. coli; conditions: other: substrate concentrations 2-140 mM, initial reaction rates
[6] = substrate: O=CN[C@@H](CC(=O)N[C@@H](Cc1ccccc1)C(=O)O)C(=O)O; test: as above; format: biochemical, E. coli; conditions: other: PDF (Fe^2+), pH 6.2, 37° C.
[7] = substrate: O=CN[C@@H](CC(=O)O)C(=O)N[C@@H](Cc1ccccc1)C(=O)O; test: as above; format: biochemical, E. coli; conditions: other: substrate concentrations 2-140 mM, initial reaction rates

## COC(=O)[C@H](Cc1ccccc1)NC(=O)[C@H](CC(=O)O)NC=O [F-α-APM, N-formyl-α-L-aspartyl-L-phenylalanine methyl ester] (For-Asp-Phe-OMe)
[1]
  yield (%) of deformylated product: 44.2%
[2]
  formation of α-APM from F-α-APM: In none of the samples taken, formation of α-APM from F-α-APM could be demonstrated
penicillin-acylase
  yield of deformylation: 20%

## O=CN[C@@H](CC(=O)N[C@@H](Cc1ccccc1)C(=O)O)C(=O)O [F-β-AP, N-formyl-β-L-aspartyl-L-phenylalanine]
[1]
  yield (%) of deformylated product: 1.1%
  inhibition of the PDF in the deformylation of F-α-AP and F-α-APM: does not give any inhibition

## COC(=O)[C@H](Cc1ccccc1)NC(=O)C[C@H](NC=O)C(=O)O [F-β-APM, N-formyl-β-L-aspartyl-L-phenylalanine methyl ester]
[1]
  yield (%) of deformylated product: 0.2%
  inhibition of the PDF in the deformylation of F-α-AP and F-α-APM: does not give any inhibition

## O=CN[C@@H](CC(=O)O)C(=O)N[C@@H](Cc1ccccc1)C(=O)O [F-α-AP, N-formyl-α-L-aspartyl-L-phenylalanine] (For-Asp-Phe-OH)
[1]
  yield (%) of deformylated product: 21.6%

## O=CN[C@@H](CC(=O)O)C(=O)O [F-Asp, N-formyl-L-aspartic acid]
[1]
  yield (%) of deformylated product: 0.5%

B1: PDF (Fe^2+): EC 3.5.1.27 formylmethionyl peptide deformylase with Fe^2+ co-factor, isolated from overproducing E. coli cells (protein, UniProt P0A6K3 2-169, looked up)
Peptide deformylase: SVLQVLHIPDERLRKVAKPVEEVNAEIQRIVDDMFETMYAEEGIGLAATQVDIHQRIIVIDVSENRDERLVLINPELLEKSGETGIEEGCLSIPEQRALVPRAEKVKIRALDRDGKPFELEADGLLAICIQHEMDHLVGKLFMDYLSPLKQQRIRQKVEKLDRLKARA
modifications: Fe2+ cofactor
notes: EC 3.5.1.27 formylmethionyl peptide deformylase with Fe^2+ co-factor, isolated from overproducing E. coli cells
[3]
  activity of the enzyme: 800 IU/mg

B2: EC 3.5.1.27 PDF (Fe^2+) enzyme (Escherichia coli K-12) (protein)
chain: T1 sequence (P0A6K3 1-169)
notes: made in house; host or cells: E. coli (overproducing cells)
[4]
  kcat/Km: < 0.0001 M⁻¹ s⁻¹
[5]
  Km: 25.3 mM
  kcat: 0.0117 s⁻¹
  kcat/Km: 0.46 M⁻¹ s⁻¹
[6]
  kcat/Km: < 0.0001 M⁻¹ s⁻¹
[7]
  Km: 12.3 mM
  kcat: 0.00333 s⁻¹
  kcat/Km: 0.27 M⁻¹ s⁻¹
